Test results as given in the NIST ThermoML archive (doi:10.1016/j.fluid.2005.03.032).
± gives the expanded uncertainty stated by the source.

Experiment: xn = mol fraction of the nth substance listed
Conditions: 310.95 K; for viscosity: Capillary tube (Ostwald / Ubbelohde) method; for mass density: Vibrating tube method

CCCC [butane] + C
Gas, x2 = 0.736
Conditions	mass density [kg/m3]	viscosity [mPa·s]
13790 kPa	265 ± 2	0.0305 ± 0.0019
20680 kPa	329 ± 2	0.0406 ± 0.0026

C [methane] + CCCCCCCCCC
Conditions	viscosity [mPa·s]
34610 kPa, Gas, x1 = 0.9514	0.0386 ± 0.0025
34610 kPa, Liquid, x1 = 0.8064	0.12 ± 0.005
35160 kPa, Gas, x1 = 0.9514	0.0396 ± 0.0025
35160 kPa, Liquid, x1 = 0.8064	0.12 ± 0.005
35850 kPa, Gas, x1 = 0.9514	0.0403 ± 0.0026
35850 kPa, Liquid, x1 = 0.8064	0.121 ± 0.005
36230 kPa, Liquid, x1 = 0.8609	0.105 ± 0.005
36300 kPa, Liquid, x1 = 0.8609	0.102 ± 0.005
36370 kPa, Liquid, x1 = 0.8609	0.1 ± 0.004
36540 kPa, Gas, x1 = 0.9514	0.041 ± 0.0026
36540 kPa, Liquid, x1 = 0.8064	0.122 ± 0.005
36540 kPa, Liquid, x1 = 0.8609	0.096 ± 0.004
36890 kPa, Liquid, x1 = 0.8609	0.095 ± 0.004
37230 kPa, Gas, x1 = 0.9514	0.0416 ± 0.0027
37230 kPa, Liquid, x1 = 0.8064	0.123 ± 0.005
37230 kPa, Liquid, x1 = 0.8609	0.095 ± 0.004
37580 kPa, Liquid, x1 = 0.8609	0.095 ± 0.004
37920 kPa, Gas, x1 = 0.9514	0.042 ± 0.0027
37920 kPa, Liquid, x1 = 0.8064	0.124 ± 0.005
37920 kPa, Liquid, x1 = 0.8609	0.096 ± 0.004
